The source of these data is patent publication US9499492B2, “4-(ortho)-fluorophenyl-5-fluoropyrimidin-2-yl amines containing a sulfoximine group” (BAYER PHARMA AKTIENGESELLSCHAFT, priority 2012, dated 2016).

The structures appear in SMILES notation. Where two headings read alike, the source gives them in different places.

In data set [1] the test system is HeLa, human cervical tumour cells. Briefly: Proliferation assay, HeLa (Method 3). It counts as cell-based. The settings on record: 4 days, crystal violet, read-out: Inhibition of HeLa cell proliferation IC50. Summed up: (§1)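 Four-day compound treatment (0.001–10 μM, 0.5% DMSO final) began 24 h after seeding. Readout: crystal violet, 595 nm, referenced to a zero-point plate and vehicle wells.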

Data set [2] concerns A2780, human ovarian carcinoma cells. In words: Proliferation assay, A2780 (Method 3). Type of data set: cell-based. The settings on record: A2780, 4 days, crystal violet, read-out: Inhibition of A2780 cell proliferation IC50. Summed up:
as §1

Data set [3] can be described thus: In vitro metabolic stability in rat hepatocytes (Method 5). The settings on record: 1 μM test compound. Type of data set: in vitro ADME, Han Wistar rat. The method, then:
5. Investigation of In Vitro Metabolic Stability in Rat Hepatocytes
Hepatocytes from Han Wistar rats were isolated via a 2-step perfusion method. After perfusion, the liver was carefully removed from the rat: the liver capsule was opened and the hepatocytes were gently shaken out into a Petri dish with ice-cold Williams medium E (purchased from Sigma Aldrich Life Science, St Louis, Mo.). The resulting cell suspension was filtered through sterile gaze in 50 ml falcon tubes and centrifuged at 50×g for 3 min at room temperature. The cell pellet was resuspended in 30 ml WME and centrifuged through a Percoll® gradient for 2 times at 100×g. The hepatocytes were washed again with Williams' medium E (WMA) and resuspended in medium containing 5% Fetal calf serum (FCS, purchased from Invitrogen, Auckland, NZ). Cell viability was determined by trypan blue exclusion.
For the metabolic stability assay liver cells were distributed in WME containing 5% FCS to glass vials at a density of 1.0×10^6 vital cells/ml. The test compound was added to a final concentration of 1 μM. During incubation, the hepatocyte suspensions were continuously shaken and aliquots were taken at 2, 8, 16, 30, 45 and 90 min, to which equal volumes of cold acetonitrile were immediately added. Samples were frozen at −20° C. over night, after subsequently centrifuged for 15 minutes at 3000 rpm and the supernatant was analyzed with an Agilent 1200 HPLC-system with LCMS/MS detection.
The half-life of a test compound was determined from the concentration-time plot. From the half-life the intrinsic clearances were calculated. Together with the additional parameters liver blood flow, amount of liver cells in vivo and in vitro.

Data set [4] concerns the target CDK9/CycT1 (Homo sapiens (Human), UniProt P50750). Briefly: CDK9/CycT1 high ATP kinase assay (Method 1b). It counts as biochemical. The settings on record: 2 mM ATP. Summed up: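 Full-length His-tagged human CDK9/CycT1 (insect cells, ~0.5 μg/ml) pre-incubated 15 min at 22 °C with compound in Tris pH 8.0/MgCl2/DTT buffer; biotinylated peptide substrate, high ATP. After detection reagents, 1 h at 22 °C; TR-FRET 665/620 nm emission ratio (350 nm excitation) measured phosphorylation.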

Data set [5] deals with DU 145, hormone-independent human prostate carcinoma cells. Briefly: Proliferation assay, DU 145 (Method 3). The settings on record: DU145, 4 days, crystal violet, read-out: Inhibition of DU145 cell proliferation IC50. Type of data set: cell-based. The method, then:
(§2) After 24 hours, the cells of one plate (zero-point plate) were stained with crystal violet (see below), while the medium of the other plates was replaced by fresh culture medium (200 μl), to which the test substances were added in various concentrations (0 μM, as well as in the range of 0.001-10 μM; the final concentration of the solvent dimethyl sulfoxide was 0.5%). The cells were incubated for 4 days in the presence of test substances. Cell proliferation was determined by staining the cells with crystal violet: the cells were fixed by adding 20 μl/measuring point of an 11% glutaric aldehyde solution for 15 minutes at room temperature. After three washing cycles of the fixed cells with water, the plates were dried at room temperature. The cells were stained by adding 100 μl/measuring point of a 0.1% crystal violet solution (pH 3.0). After three washing cycles of the stained cells with water, the plates were dried at room temperature. The dye was dissolved by adding 100 μl/measuring point of a 10% acetic acid solution. The extinction was determined by photometry at a wavelength of 595 nm. The change of cell number, in percent, was calculated by normalization of the measured values to the extinction values of the zero-point plate (=0%) and the extinction of the untreated (0 μm) cells (=100%).

Data set [6] relates to B16F10, mouse melanoma cells. In words: Proliferation assay, B16F10 (Method 3). Type of data set: cell-based. The settings on record: B16F10, 4 days, crystal violet, read-out: Inhibition of B16F10 cell proliferation IC50. The procedure: as §2

Sequence of CDK9/CycT1 (P50750 whole entry): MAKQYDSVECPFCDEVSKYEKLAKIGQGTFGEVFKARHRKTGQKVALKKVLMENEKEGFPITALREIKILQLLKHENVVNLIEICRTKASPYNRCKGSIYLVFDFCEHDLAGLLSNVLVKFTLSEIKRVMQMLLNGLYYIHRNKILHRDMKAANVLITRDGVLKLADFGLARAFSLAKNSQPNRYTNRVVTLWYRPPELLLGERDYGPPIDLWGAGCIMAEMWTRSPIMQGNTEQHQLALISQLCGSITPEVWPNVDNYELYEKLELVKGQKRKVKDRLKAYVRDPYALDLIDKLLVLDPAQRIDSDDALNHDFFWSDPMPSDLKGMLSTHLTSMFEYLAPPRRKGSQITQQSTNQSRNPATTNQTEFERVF
Sequence of CDK9/CycT1 (O60563 whole entry partner): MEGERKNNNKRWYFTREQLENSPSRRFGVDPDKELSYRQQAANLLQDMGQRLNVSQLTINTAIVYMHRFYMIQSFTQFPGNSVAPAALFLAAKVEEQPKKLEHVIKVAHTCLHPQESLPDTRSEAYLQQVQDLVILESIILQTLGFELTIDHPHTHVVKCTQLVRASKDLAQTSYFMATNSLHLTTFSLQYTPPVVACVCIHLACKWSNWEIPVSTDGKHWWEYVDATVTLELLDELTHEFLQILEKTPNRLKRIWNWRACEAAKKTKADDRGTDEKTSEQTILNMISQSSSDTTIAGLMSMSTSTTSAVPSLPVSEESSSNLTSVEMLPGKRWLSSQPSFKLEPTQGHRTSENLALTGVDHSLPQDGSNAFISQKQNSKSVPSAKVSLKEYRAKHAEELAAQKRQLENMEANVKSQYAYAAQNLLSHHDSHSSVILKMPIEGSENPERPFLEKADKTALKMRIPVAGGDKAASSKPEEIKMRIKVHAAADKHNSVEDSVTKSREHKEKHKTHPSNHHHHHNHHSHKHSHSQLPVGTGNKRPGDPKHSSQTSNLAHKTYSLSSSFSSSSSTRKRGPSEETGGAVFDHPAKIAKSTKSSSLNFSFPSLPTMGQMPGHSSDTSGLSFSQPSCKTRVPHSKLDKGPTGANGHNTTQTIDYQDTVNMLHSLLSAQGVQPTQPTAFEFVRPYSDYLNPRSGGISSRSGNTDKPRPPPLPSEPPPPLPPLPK

For the compound `CS(=N)(=O)Cc1cc(Cl)cc(Nc2ncc(F)c(-c3ccc(F)cc3F)n2)c1` (racemic) [Example 15, (rac)-N-{3-chloro-5-[(S-methylsulfonimidoyl)methyl]phenyl}-4-(2,4-difluorophenyl)-5-fluoropyrimidin-2-amine], the IC50 in data set [1] (Homo sapiens, 96 h) came out at 2210 nM; in data set [2] (Homo sapiens, A2780, 96 h), 110 nM; in data set [4] it was 892 nM. In data set [3], the “maximal calculated oral bioavailability (Fmax) based on stability data in rat Hepatocytes” value (from here on “maximal calculated oral bioavailability”) was 79%.

Take `CS(=O)(Cc1cc(Nc2ncc(F)c(-c3ccc(F)cc3F)n2)cc(S(F)(F)(F)(F)F)c1)=NC#N` (racemic) [Example 28, (rac)-{[3-{[4-(2,4-Difluorophenyl)-5-fluoropyrimidin-2-yl]amino}-5-(pentafluoro-λ^6-sulfanyl)benzyl](methyl)oxido-λ^6-sulfanylidene}cyanamide]: the IC50 in data set [1] (Homo sapiens, 96 h) amounted to 262 nM; in data set [2] (Homo sapiens, A2780, 96 h), 185 nM; in data set [5] (Homo sapiens, DU-145, 96 h), 311 nM; in data set [6] (Mus musculus, B16-F10, 96 h), 363 nM; in data set [4], 5 nM.

`CS(=O)(Cc1cc(Nc2ncc(F)c(-c3ccc(F)cc3F)n2)cc(C(F)(F)F)c1)=NC#N` (single isomer, unassigned) [Example 2, {[3-{[4-(2,4-Difluorophenyl)-5-fluoropyrimidin-2-yl]amino}-5-(trifluoromethyl)benzyl](methyl)oxido-λ^6-sulfanylidene}cyanamide]: the IC50 stood at 350 nM in data set [1] (Homo sapiens, 96 h); 130 nM in data set [2] (Homo sapiens, A2780, 96 h); 310 nM in data set [5] (Homo sapiens, DU-145, 96 h); 390 nM in data set [6] (Mus musculus, B16-F10, 96 h); 29 nM in data set [4]. In data set [3], the “maximal calculated oral bioavailability” value is reported as 79%.

Turning to `CS(=O)(Cc1cc(Nc2ncc(F)c(-c3ccc(F)cc3F)n2)cc(S(F)(F)(F)(F)F)c1)=NC(N)=O` (single isomer, unassigned) [Example 33, 1-{[3-{[4-(2,4-Difluorophenyl)-5-fluoropyrimidin-2-yl]amino}-5-(pentafluoro-λ^6-sulfanyl)benzyl](methyl)oxido-λ^6-sulfanylidene}urea], the IC50 in data set [1] (Homo sapiens, 96 h) was 278 nM; in data set [2], 246 nM; in data set [5], 507 nM; in data set [6] (Mus musculus, B16-F10, 96 h), 611 nM; in data set [4], 99 nM.

In the case of `CS(=O)(Cc1cc(Nc2ncc(F)c(-c3ccc(F)cc3F)n2)cc(C(F)(F)F)c1)=NC(N)=O` (racemic) [Example 7, (rac)-1-{[3-{[4-(2,4-Difluorophenyl)-5-fluoropyrimidin-2-yl]amino}-5-(trifluoromethyl)benzyl](methyl)oxido-λ^6-sulfanylidene}urea], the IC50 was 470 nM in data set [1] (Homo sapiens, 96 h) and 105 nM in data set [4]. In addition, the “maximal calculated oral bioavailability” value in data set [3] is listed as 80%.

On to `CS(=O)(Cc1cc(Nc2ncc(F)c(-c3ccc(F)cc3F)n2)cc(C(F)(F)F)c1)=NC#N` (single isomer, unassigned) [Example 3, {[3-{[4-(2,4-Difluorophenyl)-5-fluoropyrimidin-2-yl]amino}-5-(trifluoromethyl)benzyl](methyl)oxido-λ^6-sulfanylidene}cyanamide], for which the IC50 came to 590 nM in data set [1]; 260 nM in data set [2]; 370 nM in data set [5]; 340 nM in data set [6]; 32 nM in data set [4]. Moreover, the “maximal calculated oral bioavailability” value in data set [3] is 76%.

In the case of `CS(=N)(=O)Cc1cc(Nc2ncc(F)c(-c3ccc(F)cc3F)n2)cc(C(F)(F)F)c1` (racemic) [Example 4, (rac)-4-(2,4-Difluorophenyl)-5-fluoro-N-{3-[(S-methylsulfonimidoyl)methyl]-5-(trifluoromethyl)phenyl}pyrimidin-2-amine], the IC50 in data set [1] (Homo sapiens, 96 h) was 960 nM; in data set [4] it was 251 nM. Moreover, in data set [3], the “maximal calculated oral bioavailability” value is 91%.

With `CS(=O)(Cc1cc(Nc2ncc(F)c(-c3ccc(F)cc3F)n2)cc(C(F)(F)F)c1)=NC#N` (racemic) [Example 1, (rac)-{[3-{[4-(2,4-Difluorophenyl)-5-fluoropyrimidin-2-yl]amino}-5-(trifluoromethyl)benzyl](methyl)oxido-λ^6-sulfanylidene}cyanamide], the IC50 in data set [1] (Homo sapiens, 96 h) amounted to 440 nM; in data set [4] it was 39 nM. In data set [3], the “maximal calculated oral bioavailability” value is 75%.

Regarding `CS(=N)(=O)Cc1cc(Nc2ncc(F)c(-c3ccc(F)cc3F)n2)cc(S(F)(F)(F)(F)F)c1` (single isomer, unassigned) [Example 32, 4-(2,4-Difluorophenyl)-5-fluoro-N-{3-[(S-methylsulfonimidoyl)methyl]-5-(pentafluoro-λ^6-sulfanyl)phenyl}pyrimidin-2-amine], the IC50 in data set [1] amounted to 331 nM; in data set [2] it was 268 nM; in data set [5] (Homo sapiens, DU-145, 96 h), 397 nM; in data set [6] (Mus musculus, B16-F10, 96 h), 406 nM; in data set [4], 6 nM. In addition, the “maximal calculated oral bioavailability” value in data set [3] is reported as 91%.

Take `CS(=O)(Cc1cc(Nc2ncc(F)c(-c3ccc(F)cc3F)n2)cc(C(F)(F)F)c1)=NC(N)=O` (single isomer, unassigned) [Example 23, 1-{[3-{[4-(2,4-Difluorophenyl)-5-fluoropyrimidin-2-yl]amino}-5-(trifluoromethyl)benzyl](methyl)oxido-λ^6-sulfanylidene}urea]: the IC50 in data set [1] turned out to be 290 nM; in data set [2], 970 nM; in data set [5] (Homo sapiens, DU-145, 96 h), 250 nM; in data set [6] (Mus musculus, B16-F10, 96 h) it was 380 nM; in data set [4], 16 nM. Also, the “maximal calculated oral bioavailability” value in data set [3] is 93%.
